Legend:
p110α Type Ia human PI3K = biological target: T1, p110α Type Ia human PI3K (Homo sapiens, UniProt P42336); experiment: In vitro enzyme assay (AlphaScreen), Test (a); format: biochemical; conditions: recombinant enzyme, PI(4,5)P2 substrate, ATP 4 μM, read-out: IC50 versus p110α Type Ia human PI3K
T1 construct: full length DNA of each of the p110α, p110β and p110δ Type Ia human PI3K p110 isoforms; 6-His; made in house; Grp1 PH domain in E. coli
Description: (a) In Vitro Enzyme Assay
The assay used AlphaScreen technology (Gray et al., Analytical Biochemistry, 2003, 313: 234-245) to determine the ability of test compounds to inhibit phosphorylation by recombinant Type I PI3K enzymes of the lipid PI(4,5)P2.
DNA fragments encoding human PI3K catalytic and regulatory subunits were isolated from cDNA libraries using standard molecular biology and PCR cloning techniques. The selected DNA fragments were used to generate baculovirus expression vectors. In particular, full length DNA of each of the p110α, p110β and p110δ Type Ia human PI3K p110 isoforms (EMBL Accession Nos. HSU79143, S67334, Y10055 for p110α, p110β and p110δ respectively) were sub-cloned into a pDEST10 vector (Invitrogen Limited, Fountain drive, Paisley, UK). The vector is a Gateway-adapted version of Fastbac1 containing a 6-His epitope tag. A truncated form of Type Ib human PI3K p110γ isoform corresponding to amino acid residues 144-1102 (EMBL Accession No. X8336A) and the full length human p85α regulatory subunit (EMBL Accession No. HSP13KIN) were also sub-cloned into pFastBac1 vector containing a 6-His epitope tag. The Type Ia p110 constructs were co-expressed with the p85α regulatory subunit. Following expression in the baculovirus system using standard baculovirus expression techniques, expressed proteins were purified using the His epitope tag using standard purification techniques.
DNA corresponding to amino acids 263 to 380 of human Grp1 PH domain was isolated from a cDNA library using standard molecular biology and PCR cloning techniques. The resultant DNA fragment was sub-cloned into a pGEX 4T1 E. coli expression vector containing a GST epitope tag (Amersham Pharmacia Biotech, Rainham, Essex, UK) as described by Gray et al., Analytical Biochemistry, 2003, 313: 234-245). The GST-tagged Grp1 PH domain was expressed and purified using standard techniques.
Test compounds were prepared as 10 mM stock solutions in DMSO and diluted into water as required to give a range of final assay concentrations. Aliquots (2 μl) of each compound dilution were placed into a well of a Greiner 384-well low volume (LV) white polystyrene plate (Greiner Bio-one, Brunel Way, Stonehouse, Gloucestershire, UK Catalogue No. 784075). […]
Biotinylated-DiC8-PI(3,4,5)P3 (50 nM; Cell Signals Inc., Catalogue No. 107), recombinant purified GST-Grp1 PH protein (2.5 nM) and AlphaScreen Anti-GST donor and acceptor beads (100 ng; Packard Bioscience Limited, Station Road, Pangbourne, Berkshire, UK, Catalogue No. 6760603M) were added and the assay plates were left for about 5 to 20 hours at ambient temperature in the dark. The resultant signals arising from laser light excitation at 680 nm were read using a Packard AlphaQuest instrument. […]

[1] = tested on: phosphorylation of Serine 473 in Akt; experiment: In vitro phospho-Ser473 Akt assay, Test (b); format: cell-based; conditions: Homo sapiens, MDA-MB-468 cells, 2 hours incubation, read-out: IC50, inhibition of phosphorylation of Serine 473 in Akt
Experimental: (b) In Vitro Phospho-Ser473 Akt Assay
This assay determines the ability of test compounds to inhibit phosphorylation of Serine 473 in Akt as assessed using Acumen Explorer technology (Acumen Bioscience Limited), a plate reader that can be used to rapidly quantitate features of images generated by laser-scanning.
A MDA-MB-468 human breast adenocarcinoma cell line (LGC Promochem, Teddington, Middlesex, UK, Catalogue No. HTB-132) was routinely maintained at 37° C. with 5% CO2 up to a confluency of 70-90% in Dulbecco's modified Eagle's growth medium (DMEM; Invitrogen Limited, Paisley, UK Catalogue No. 41966-029) containing 10% heat-inactivated foetal calf serum (FCS; Sigma, Poole, Dorset, UK, Catalogue No. F0392) and 1% L-glutamine (Gibco, Catalogue No. 25030-024).
For the assay, the cells were detached from the culture flask using ‘Accutase’ (Innovative Cell Technologies Inc., San Diego, Calif., USA; Catalogue No. AT104) using standard tissue culture methods and resuspended in media to give 1.7×10^5 cells per ml. Aliquots (90 μl) were seeded into each of the inner 60 wells of a black Packard 96 well plate (PerkinElmer, Boston, Mass., USA; Catalogue No. 6005182) to give a density of ˜15000 cells per well. Aliquots (90 μl) of culture media were placed in the outer wells to prevent edge effects. The cells were incubated overnight at 37° C. with 5% CO2 to allow them to adhere.
On day 2, the cells were treated with test compounds and incubated for 2 hours at 37° C. with 5% CO2. Test compounds were prepared as 10 mM stock solutions in DMSO and serially diluted as required with growth media to give a range of concentrations that were 10-fold the required final test concentrations. Aliquots (10 μl) of each compound dilution were placed in a well (in triplicate) to give the final required concentrations. […]
All subsequent aspiration and wash steps were carried out using a Tecan 96 well plate washer (aspiration speed 10 mm/sec). […] An aliquot of PBS (50 μl) was added to each well and the plates were sealed with black plate sealers and the fluorescence signal was detected and analysed. […]

T1 sequence (P42336 whole entry, the tested form may be a part, canonical isoform): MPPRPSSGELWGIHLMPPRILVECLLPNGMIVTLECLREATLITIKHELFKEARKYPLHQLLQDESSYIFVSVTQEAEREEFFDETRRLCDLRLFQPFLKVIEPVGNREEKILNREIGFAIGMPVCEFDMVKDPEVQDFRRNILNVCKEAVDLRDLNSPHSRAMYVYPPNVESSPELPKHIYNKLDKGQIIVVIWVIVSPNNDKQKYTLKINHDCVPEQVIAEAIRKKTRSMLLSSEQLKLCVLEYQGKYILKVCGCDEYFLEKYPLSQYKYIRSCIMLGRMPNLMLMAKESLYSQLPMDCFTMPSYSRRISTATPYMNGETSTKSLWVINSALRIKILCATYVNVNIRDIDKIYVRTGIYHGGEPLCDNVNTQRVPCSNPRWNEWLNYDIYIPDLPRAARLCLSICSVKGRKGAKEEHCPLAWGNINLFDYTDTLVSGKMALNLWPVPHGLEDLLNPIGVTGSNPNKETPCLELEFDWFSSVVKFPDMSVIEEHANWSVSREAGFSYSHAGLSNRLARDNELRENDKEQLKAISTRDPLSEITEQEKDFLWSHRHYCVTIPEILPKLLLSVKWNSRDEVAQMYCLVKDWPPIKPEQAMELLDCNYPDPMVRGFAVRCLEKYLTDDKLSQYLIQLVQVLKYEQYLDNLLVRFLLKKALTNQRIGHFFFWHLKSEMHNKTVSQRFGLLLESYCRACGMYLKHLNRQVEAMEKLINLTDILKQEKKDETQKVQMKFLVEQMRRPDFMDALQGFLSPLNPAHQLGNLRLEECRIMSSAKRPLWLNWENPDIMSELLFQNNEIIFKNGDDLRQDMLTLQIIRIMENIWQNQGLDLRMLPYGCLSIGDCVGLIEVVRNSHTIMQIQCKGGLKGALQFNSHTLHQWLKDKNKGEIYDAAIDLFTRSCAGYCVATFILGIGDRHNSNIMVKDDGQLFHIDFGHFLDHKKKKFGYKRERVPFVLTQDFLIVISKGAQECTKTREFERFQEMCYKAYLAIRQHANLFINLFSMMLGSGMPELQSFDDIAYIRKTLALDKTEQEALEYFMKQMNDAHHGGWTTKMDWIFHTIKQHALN
T1 sequence (P27986 whole entry partner, the tested form may be a part, canonical isoform): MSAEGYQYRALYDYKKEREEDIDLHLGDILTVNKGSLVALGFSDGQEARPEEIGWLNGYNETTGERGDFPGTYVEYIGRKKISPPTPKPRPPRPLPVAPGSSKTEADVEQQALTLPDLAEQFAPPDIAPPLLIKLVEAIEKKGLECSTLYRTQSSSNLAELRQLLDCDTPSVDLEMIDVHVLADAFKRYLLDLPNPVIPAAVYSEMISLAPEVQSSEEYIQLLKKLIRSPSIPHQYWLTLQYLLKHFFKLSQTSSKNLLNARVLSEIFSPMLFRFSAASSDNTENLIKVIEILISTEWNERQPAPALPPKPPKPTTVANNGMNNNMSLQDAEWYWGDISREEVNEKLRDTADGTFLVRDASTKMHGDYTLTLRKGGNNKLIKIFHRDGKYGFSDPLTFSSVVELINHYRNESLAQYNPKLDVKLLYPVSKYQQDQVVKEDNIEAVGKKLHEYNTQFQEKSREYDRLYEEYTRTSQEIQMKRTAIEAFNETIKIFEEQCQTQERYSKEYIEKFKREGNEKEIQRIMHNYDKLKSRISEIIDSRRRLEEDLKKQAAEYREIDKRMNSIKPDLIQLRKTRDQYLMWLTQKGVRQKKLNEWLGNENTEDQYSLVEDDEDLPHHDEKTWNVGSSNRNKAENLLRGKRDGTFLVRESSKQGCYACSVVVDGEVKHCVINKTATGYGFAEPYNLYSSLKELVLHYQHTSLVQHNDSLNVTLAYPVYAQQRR

COc1ncc(-c2cc(N3CCOCC3)nc(-c3cccc(NC(C)=O)c3)n2)cn1 [Example 2, 2-(3-acetamidophenyl)-4-(2-methoxypyrimidin-5-yl)-6-morpholinopyrimidine]
IC50 (p110α Type Ia human PI3K): ~12 µM | IC50 [1]: ~28 µM

O=C(Nc1cccc(-c2cc(N3CCOCC3)nc(-c3ccc(CO)o3)n2)c1)C1CCCNC1 (stereo not shown) [Example 4, 2-(5-hydroxymethylfuran-2-yl)-6-morpholino-4-(3-piperidin-3-ylcarbonylaminophenyl)pyrimidine]
IC50 (p110α Type Ia human PI3K): ~0.6 µM

O=C(Nc1cccc(-c2nc(-c3ccc(CO)s3)cc(N3CCOCC3)n2)c1)C1CCNCC1 [Example 1, 4-(5-hydroxymethylthien-2-yl)-6-morpholino-2-(3-piperidin-4-ylcarbonylaminophenyl)pyrimidine]
IC50 (p110α Type Ia human PI3K): ~10 µM | IC50 [1]: ~50 µM

O=C(Nc1cccc(-c2nc(-c3ccc(CO)o3)cc(N3CCOCC3)n2)c1)C1CCNCC1 [Example 5, 4-(5-hydroxymethylfuran-2-yl)-6-morpholino-2-(3-piperidin-4-ylcarbonylaminophenyl)pyrimidine]
IC50 (p110α Type Ia human PI3K): ~0.5 µM | IC50 [1]: ~1 µM
